The text below walks through data of patent US5935954A, “Compounds with improved multi-drug resistance activity” (Vertex Pharmaceuticals Incorporated, priority 1997, dated 1999).

Each structure is given as a SMILES string. Where two headings read alike, the source gives them in different places.

Assay [1] relates to L1210 mouse leukemia cells transformed with the pHaMDR1/A retrovirus carrying a MDR1 cDNA. Kind of assay: cells. Particulars: for MDR Ratio: IC50 Dox / IC50 Dox+Inhibitor, 2.5 μM compound; for IC50: Mus musculus, doxorubicin alone. The class given is cell-based. Here is the method:
To assay the ability of the compounds according to this invention to increase the antiproliferative activity of a drug, cell lines which are known to be resistant to a particular drug may be used. These cell lines include, but are not limited to, the L1210, P388D, CHO and MCF7 cell lines. Alternatively, resistant cell lines may be developed. The cell line is exposed to the drug to which it is resistant, or to the test compound; cell viability is then measured and compared to the viability of cells which are exposed to the drug in the presence of the test compound.
To carry out assays using L1210 mouse leukemia cells transformed with the pHaMDR1/A retrovirus carrying a MDR1 cDNA, we follow the procedure described by Pastan et al., Proc. Natl. Acad. Sci., Vol. 85, […] 4490 (1988). The resistant line, labelled L1210VMDRC.06, is obtained from Dr. M. M. Gottesman of the National Cancer Institute. Drug-resistant transfectants are selected by culturing cells in […] colchicine.
Multi-drug resistance assays are conducted by plating cells (2×10^3, 1×10^4, or 5×10^4 cells/well) in 96 well microtiter plates and exposing them to a concentration range of doxorubicin (50 nM-10 μM) in the presence or absence of multi-drug resistance modifier compounds ("MDR inhibitors") of this invention (1, 2.5 or 10 μM) as described in Ford et al., Cancer Res., Vol. 50, 1748-1756. (1990). After culture for 3 days, the viability of cells is quantitated using MTT (Mossman) or XTT dyes to assess mitochondrial function. Also see, Mossman T., J. Immunol. Methods, Vol. 65, 55-63 (1983).
Results are determined by comparison of the IC50 for doxorubicin alone to the IC50 for doxorubicin+MDR inhibitor. An MDR ratio is calculated (IC50 Dox/ IC50 Dox+Inhibitor) and the integer value used for comparison of compound potencies. […]

The target of another assay is FKBP12 (Homo sapiens, UniProt P62942). Kind of assay: FKBP12 binding assay (inhibition of rotomase activity). Particulars: apparent Ki. The class given is biochemical. The source says:
Preferably, the assay measures inhibition of FKBP12 rotomase activity. Such an assay has also been described by M. W. Harding et al., supra and by J. J. Siekierka et al., supra. In this assay the isomerization of an artificial substrate--N-succinyl-Ala-Ala-Pro-Phe-p-nitroanilide--is followed spectrophotometrically. The assay includes the cis form of the substrate, FKBP12, the inhibitor and chymotrypsin. Chymotrypsin is able to cleave p-nitroanilide from the trans form of the substrate, but not the cis form. Release of p-nitroanilide is measured.
The inhibition of FKBP rotomase activity by the preferred FKBP12 binding compounds present in the compositions of this invention was assayed. In this assay various quantities of FKBP12 binding compound (0nM-10 μM) were added to cis-N-succinyl-Ala-Ala-Pro-Phe-p-nitroanilide in the presence of FKBP12 and chymotrypsin. FKBP12 converts the cis form of the substrate to the trans form. This allows chymotrypsin to cleave p-nitroanilide from the substrate. Release of p-nitroanilide was measured spectrophotometrically. This assay allowed me to measure the change in the first order rate constant of the rotomase activity as a function of FKBP12 binding compound concentration and yielded an estimate of apparent Ki.

Chain of FKBP12 (P62942 whole entry, species assumed): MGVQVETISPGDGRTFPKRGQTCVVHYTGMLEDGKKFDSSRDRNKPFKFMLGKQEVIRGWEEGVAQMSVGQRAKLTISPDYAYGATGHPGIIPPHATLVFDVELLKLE

In the case of `CCC/C=C(\c1cccnc1)c1cccc([C@@H](CCN2CCOCC2)OC(=O)[C@@H]2CCCCN2C(=O)C(=O)c2cc(OC)c(OC)c(OC)c2)c1` [Compound 30], the “MDR Ratio” value in assay [1] (Date 5/12/95) is 14.0. The Ki on FKBP12 is 27 nM.

For the compound `COc1cccc2c1C(=O)c1c(O)c3c(c(O)c1C2=O)C[C@@](O)(C(=O)CO)C[C@@H]3O[C@H]1C[C@H](N)[C@H](O)[C@H](C)O1` [DXR, doxorubicin, reference compound], the IC50 worked out at 2100 nM in assay [1] (L1210, read-out: IC50 DXR Alone, Date 4/21/95) and 700 nM in assay [1] (L1210, read-out: IC50 DXR Alone, Date 5/12/95).

With `CCOCc1cccc(COCC)c1-c1csc([C@H](CCN2CCOCC2)OC(=O)[C@@H]2CCCCN2C(=O)C(=O)C2CCOCC2)c1` [Compound 61], the “MDR Ratio” value in assay [1] (Date 5/12/95) came to 2.5. On FKBP12, the Ki was more than 10000 nM.

As to `CCOCc1cc2ccccc2n1-c1cccc([C@@H](OC(=O)[C@@H]2CCCCN2C(=O)C(=O)c2ccco2)/C(C)=C/[C@H]2CC[C@H](O)CC2)c1` [Compound 43], the “MDR Ratio” value in assay [1] (Date 5/12/95) came to 14.0. On FKBP12, the Ki was found to be 180 nM.

For `COC/C=C(\c1cncc([C@@H](OC(=O)[C@@H]2CCCCN2C(=O)C(=O)CC(C)C)/C(C)=C/[C@H]2CC[C@H](O)CC2)c1)C1CCCCC1` [Compound 59], the “MDR Ratio” value in assay [1] (Date 5/12/95) was 10.8. For the same compound, at FKBP12, the Ki stood at 71 nM.

Regarding `C=CCC/C=C(/c1cccnc1)c1ccc(C(CCN2CCOCC2)OC(=O)[C@@H]2CCCCN2C(=O)C(=O)C(C)(C)C(C)C)s1` (stereo partly drawn) [Compound 90], the “MDR Ratio” value in assay [1] (Date 5/12/95) is 7.4. The Ki on FKBP12 turned out to be 9 nM.

Regarding `CCCc1ccc(CCC)n1-c1cccc([C@@H](CCN2CCOCC2)OC(=O)[C@@H]2CCCCN2C(=O)C(=O)[C@@H]2C[C@H](C(C)(C)OC)CC=C2C)c1` [Compound 107], the “MDR Ratio” value in assay [1] (Date 5/12/95) is recorded as 8.8. The Ki at FKBP12 was found to be 7600 nM.

Take `CCC/C(=C/COC)c1cncc([C@@H](CCN2CCOCC2)OC(=O)[C@@H]2CCCCN2C(=O)C(=O)[C@@H]2C[C@H](C(C)(C)OC)CC[C@H]2C)c1` [Compound 123]: in assay [1] (Date 4/21/95), the “MDR Ratio” value came out at 12.4. For the same compound, the Ki on FKBP12 is 2800 nM.

Turning to `C=CCC/C=C(/c1cccnc1)c1ccc([C@@H](OC(=O)[C@@H]2CCCCN2C(=O)C(=O)C(C)(C)C)/C(C)=C/C2CCN(C)CC2)s1` [Compound 52], the figures for the “MDR Ratio” value in assay [1] (Date 4/21/95) and in assay [1] (Date 5/12/95) were 5.8 and 4.1, respectively. The Ki on FKBP12 worked out at 200 nM.

`CCOCc1cccc(COCC)c1-c1cncc(C(CCN2CCOCC2)OC(=O)[C@@H]2CCCCN2C(=O)C(=O)C(C)(C)C(C)C)c1` (stereo partly drawn) [Compound 89]: the “MDR Ratio” value in assay [1] (Date 5/12/95) was found to be 5.0. The Ki on FKBP12 came to 263 nM.

On to `CCCc1ccc(CCC)n1-c1cccc([C@@H](CCN2CCOCC2)OC(=O)[C@@H]2CCCCN2C(=O)C(=O)[C@@H]2C[C@H](OCC)CC[C@H]2C)c1` [Compound 111], for which the “MDR Ratio” value in assay [1] (Date 5/12/95) was 9.3. Also, the Ki at FKBP12 is 800 nM.

Take `C=CCC/C=C(\c1ccc(C(CCN2CCOCC2)OC(=O)[C@@H]2CCCCN2C(=O)C(=O)C(C)(C)C(C)C)s1)C1CCOCC1` (stereo partly drawn) [Compound 91]: the “MDR Ratio” value in assay [1] (Date 5/12/95) is 2.7. Moreover, the Ki on FKBP12 was 8 nM.

Consider `CCOCc1cccc(COCC)c1-c1cncc([C@H](CCN2CCOCC2)OC(=O)[C@@H]2CCCCN2C(=O)C(=O)C2(C)CCCCC2)c1` [Compound 76], for which, in assay [1] (Date 5/12/95), the “MDR Ratio” value is 6.4. Besides, the Ki on FKBP12 is 400 nM.

On to `CCOCc1cccc(COCC)c1-c1ccc([C@@H](CCN2CCOCC2)OC(=O)[C@@H]2CCCCN2C(=O)C(=O)C2(C)CCCCC2)s1` [Compound 79], for which the “MDR Ratio” value in assay [1] (Date 5/12/95) was determined as 7.8. Besides, the Ki at FKBP12 stood at 12 nM.

With `CCCCc1ccc(C)n1-c1cccc([C@@H](CCN2CCOCC2)OC(=O)[C@@H]2CCCCN2C(=O)C(=O)[C@@H]2C[C@H](C(C)(C)OC)CC[C@H]2C)c1` [Compound 112], the “MDR Ratio” value in assay [1] (Date 5/12/95) turned out to be 10.8. Also, the Ki at FKBP12 is 930 nM.

As to `CCCOc1ccc(OCCC)c(-c2cncc([C@@H](CCCc3ccccc3)OC(=O)[C@@H]3CCCCN3C(=O)C(=O)c3cc(OC)c(OC)c(OC)c3)c2)c1` [Compound 22], the “MDR Ratio” value in assay [1] (Date 4/21/95) is listed as 12.4; in assay [1] (Date 5/12/95), 1.3. Moreover, the Ki on FKBP12 stood at 31 nM.

Regarding `CCC/C=C(\c1cncc(C(OC(=O)[C@@H]2CCCCN2C(=O)C(=O)C2(O)CCC(OC)CC2)/C(C)=C/c2ccncc2)c1)C1CCCCC1` (stereo partly drawn) [Compound 100], in assay [1] (Date 5/12/95), the “MDR Ratio” value is reported as less than 14.0. Besides, the Ki at FKBP12 amounted to 380 nM.

For the compound `COc1cc(C(=O)C(=O)N2CCCC[C@H]2C(=O)O[C@H](CCCc2ccccc2)c2cncc(-c3c(OC)cccc3OC)c2)cc(OC)c1OC` [Compound 24], the “MDR Ratio” value in assay [1] (Date 5/12/95) was more than 14.0. Besides, the Ki on FKBP12 stood at 0.5 nM.

With `COc1cc(C(=O)C(=O)N2CCCC[C@H]2C(=O)O[C@H](/C(C)=C/[C@H]2CC[C@H](O)CC2)c2cncc(-c3c(OC)cccc3OC)c2)cc(OC)c1OC` [Compound 32], the “MDR Ratio” value in assay [1] (Date 5/12/95) came to 11.7. For the same compound, on FKBP12, the Ki turned out to be 9.8 nM.

For the compound `CCC/C=C(/c1cccnc1)c1cccc([C@H](CCN2CCOCC2)OC(=O)[C@@H]2CCCCN2C(=O)C(=O)c2cc(OC)c(OC)c(OC)c2)c1` [Compound 27], the “MDR Ratio” value in assay [1] (Date 5/12/95) came out at 12.7. In addition, the Ki at FKBP12 was determined as 260 nM.

`CCC/C=C(/c1cccnc1)c1cccc([C@@H](CCN2CCOCC2)OC(=O)[C@@H]2CCCCN2C(=O)C(=O)c2cc(OC)c(OC)c(OC)c2)c1` [Compound 26]: in assay [1] (Date 5/12/95), the “MDR Ratio” value is 8.8. Besides, at FKBP12, the Ki came out at 2.4 nM.

For `CCCc1ccc(CCC)n1-c1cccc([C@@H](CCN2CCOCC2)OC(=O)[C@@H]2CCCCN2C(=O)C(=O)[C@@H]2CCCC[C@H]2C)c1` [Compound 105], in assay [1] (Date 5/12/95), the “MDR Ratio” value came to 5.4. The Ki on FKBP12 is 94 nM.

As to `CCC/C(=C/COC)c1cncc([C@@H](CCN2CCOCC2)OC(=O)[C@@H]2CCCCN2C(=O)C(=O)C(C)(C)C(C)C)c1` [Compound 113], in assay [1] (Date 5/12/95), the “MDR Ratio” value worked out at 7.0. Besides, the Ki on FKBP12 was found to be 61 nM.

As to `COCc1cccc(COC)c1-c1cncc([C@@H](OC(=O)[C@@H]2CCCCN2C(=O)C(=O)c2ccco2)/C(C)=C/[C@H]2CC[C@H](O)CC2)c1` [Compound 40], the “MDR Ratio” value in assay [1] (Date 5/12/95) is listed as 2.5. In addition, at FKBP12, the Ki is 500 nM.

On to `CC/C=C(/c1cccnc1)c1cccc([C@H](CCCc2ccccc2)OC(=O)[C@@H]2CCCCN2C(=O)C(=O)c2cc(OC)c(OC)c(OC)c2)c1` [Compound 28], for which the “MDR Ratio” value in assay [1] (Date 5/12/95) came to 10.0. In addition, the Ki at FKBP12 stood at 20 nM.

In the case of `COc1cc(C(=O)C(=O)N2CCCC[C@H]2C(=O)O[C@@H](CCCc2ccccc2)c2cncc(-c3c(OC)cccc3OC)c2)cc(OC)c1OC` [Compound 25], the Ki at FKBP12 came out at 30 nM.

In the case of `CCCC/C=C(/c1cccnc1)c1cccc([C@H](CCCc2ccccc2)OC(=O)[C@@H]2CCCCN2C(=O)C(=O)c2cc(OC)c(OC)c(OC)c2)c1` [Compound 36], the Ki on FKBP12 was more than 30 nM.

With `CCC/C=C(/c1ccc(C)cc1)c1cncc([C@@H](OC(=O)[C@@H]2CCCCN2C(=O)C(=O)c2ccc(F)cc2)/C(C)=C/[C@H]2CC[C@H](O)CC2)c1` [Compound 38], the Ki at FKBP12 turned out to be 70 nM.

Turning to `C=CCC/C=C(\c1ccc([C@@H](CCN2CCOCC2)OC(=O)[C@@H]2CCCCN2C(=O)C(=O)C2(O)CCCCC2)s1)C1CCOCC1` [Compound 95], at FKBP12, the Ki was 14 nM.

For `CCOc1ccccc1-c1cncc([C@@H](CCCc2ccccc2)OC(=O)[C@@H]2CCCCN2C(=O)C(=O)c2cc(OC)c(OC)c(OC)c2)c1` [Compound 18], the Ki on FKBP12 was 0.4 nM.
